These results are taken from patent US6166062A, “Pharmaceutical compositions containing phospholipase inhibitor” (Shionogi & Co., Ltd., priority 1999, dated 2000).

Data set [1] in a line: collapse temperature of frozen solutions (freeze dry microscopy). The data set is classed as physicochemical. The source says: The term, "collapse temperature," describes the glass transition temperature for amorphous solids or eutectic temperature for crystalline solids. Collapse temperature is that temperature above which the product is not completely frozen. Freeze dry microscoscropy enables measurement of the temperature at which frozen solutions begin to lose their rigid structure during a sublimation process.

Data set [2] deals with human non-pancreatic secretory phospholipase A2 (sPLA2). Conditions: as disclosed in JP-A 7-285933, EP 0 675 110 A1, U.S. Pat. No. 5,654,326; cited from earlier work.
A short description of data set [3]: solubility of Compound (I) (statement). Format: physicochemical. The source says:
Storage of a pharmaceutical composition of Compound (I) prepared by known methods may lead to degradation of its content and a coloring and a worsening of its reconstitution properties, especially in the case of injections to be dissolved before use. It is difficult to provide a pharmaceutical composition of Compound (I) which has good stability and a good reconstitution property, especially for injections of Compound (I) to be dissolved before use, after long storage at room temperature.

Regarding `CCc1c(C(=O)C(N)=O)c2c(OCC(=O)[O-])cccc2n1Cc1ccccc1.[Na+]` [Compound (I), sodium [[3-(2-amino-1,2-dioxoethyl)-2-ethyl-1-(phenylmethyl)-1H-indol-4-yl]oxy]acetate], the collapse temperature result in data set [1] (after annealing) was “about -13 °C”; in data set [1] (before annealing) it was “about -33 °C”. The “inhibitor against human non-pancreatic secretory phospholipase A2” value in data set [2] was “inhibitor”. Besides, the solubility result in data set [3] is “sparingly soluble”.
